# Results as given in patent US7485721B2, “Substituted porphyrins” (Duke University, priority 2002, dated 2009).
# Assays:
# [1] = 1.0 M HNO3, within a week; cited from earlier work
# [2] = equilibrium H3P^5+ = H2P^4+ + H^+; cited from earlier work
# [3] = Thin-layer chromatography, retention factor Rf as lipophilicity; format: physicochemical; conditions: silica gel TLC plates, 1:1:8 KNO3-saturated H2O:H2O:acetonitrile; for Rf (compound path/solvent path): Mn(III) complex; for Rf (compound path/solvent path), metal-free porphyrin (in parentheses): corresponding metal-free porphyrin H2T(alkyl)-2-PyP^4+
# From the text: Thin-layer chromatography. All ligands and their Mn(III) complexes were chromatographed on silica gel TLC plates using 1:1:8 KNO3-saturated H2O:H2O: acetonitrile. The atropoisomers could not be separated for the methyl^19 and ethyl analogues,^24 they begin to separate for the n-propyl and n-butyl species and were clearly resolved with the n-hexyl and n-octyl compounds.
# Thin Layer Chromatography. The increase in the length of the alkyl chains is accompanied by an increase in the lipophilicity of the compounds as indicated by the increase in the retention factor Rf (porphyrin path/solvent path) (Table 1, FIG. 2). […] As the chains lengthen, their contribution to the overall lipophilicity increases, and eventually the n-octyl porphyrin and its Mn(III) complex are more alike in Rf than are methyl analogues.
# [4] = Spectrophotometric proton dissociation constant pKa2; format: physicochemical; conditions: of the metal-free porphyrin H2T(alkyl)-2-PyP^4+; 25° C., ionic strength 0.10 (NaNO3/NaOH)
# Method: Uv/vis spectroscopy. The uv/vis spectra were taken on a Shimadzu UV-2501 PC spectrophotometer at 25° C. The proton dissociation constants (pKa2), were determined spectrophotometrically at 25° C., at an ionic strength of 0.1 M (NaOH/NaNO3), as previously described.^4
# The proton dissociation constants, Ka2 and Ka3 are defined as follows: H2P^4+ ? HP^3++H^+Ka2 [1] H3P^5+ ? H2P^4++H^+ Ka3 [2] As the alkyl chains lengthen the porphyrins become less hydrated and the separation of charges (eq) becomes less favorable, ie. pKa2 increases (FIG. 3 insert).
# [5] = Cyclic voltammetry, metal-centered redox potential E1/2 of Mn(III)/Mn(II) couple; format: physicochemical; conditions: 0.05 M phosphate buffer (pH 7.8, 0.1 M NaCl)
# Method: Electrochemistry. Measurements were performed on a CH Instruments Model 600 Voltammetric Analyzer.^3.4 A three-electrode system in a small volume cell (0.5 mL to 3 mL), with a 3 mm-diameter glassy carbon button working electrode (Bioanalytical Systems), plus the Ag/AgCl reference and Pt auxilliary electrodes was used. Solutions contained 0.05 M phosphate buffer, pH 7.8, 0.1 M NaCl, and […] metalloporphyrin. The scan rates were 0.01-0.5 V/s, typically 0.1 V/s. The potentials were standardized against the potassium ferrocyanide/ferricyanide^20 and/or against Mn^IIITE-2-PyP^5+. All voltammograms were reversible.
# Electrochemistry. […] The metal-centered redox potentials, E1/2 are in Table 1 and the representative voltammograms of the Mn^III/IITE-2-PyP^5+/4+ and Mn^III/IITnHex-2-PyP^5+/4+ compounds are shown in the Supporting Material, FIG. 6. Both lipophilicity (FIG. 2B) and E1/2 (FIG. 3B, insert) increase exponentially with the number of CH2 groups in the alkyl chains. Consequently, the increase in E1/2 is a linear function of Rf (FIG. 3B).
# [6] = Catalysis of O2^− dismutation, cytochrome c assay (xanthine/xanthine oxidase); format: biochemical; conditions: 0.05 M phosphate buffer, pH 7.8, (25 ± 1) ° C.
# From the text: Catalysis of O2^− dismutation. We have previously shown that the O2^− /cytochrome c reduction assay gives the same catalytic rate constants as does pulse radiolysis for Mn^IIITE-2-PyP^5+, {Mn^IIIBVDME}2, {Mn^IIIBV}2 and MnCl2.^21 Therefore the convenient cytochrome c assay was used to characterize the series of Mn(III) N-alkylpyridylporphyrins. The xanthine/xanthine oxidase reaction was the source of O2^− and ferricytochrome c was used as the indicating scavenger for O2^−.^22 The reduction of cytochrome c was followed at 550 nm. Assays were conducted at (25±1) ° C., in 0.05 M phosphate buffer, pH 7.8, 0.1 mM EDTA, in the presence and absence of 15 μg/mL of catalase. Rate constants for the reaction of metalloporphyrins with O2′^− were based upon competition with 10 μM cytochrome c, kcyt c=2.6×10^5 M^−1 s^−1 as described elsewhere.^21 The O2^− was produced at the rate of 1.2 μM per minute. Any possible interference through inhibition of the xanthine/xanthine oxidase reaction by the test compounds was examined by following the rate of urate accumulation at 295 nm in the absence of cytochrome c. No reoxidation of cytochrome c by the metalloporphyrins was observed
# Catalysis of O2^− dismutation. […] All of the manganese compounds are potent catalysts of O2^− dismutation with log kcat between 7.79 and 7.25.
# [7] = test system: SOD-deficient Escherchia coli; conditions: aerobic conditions; cited from earlier work
# [8] = stroke, diabetes, sickle cell disease, cancer/radiation; cited from earlier work
# [9] = Mn loss from Mn porphyrins in 12 M HCl; format: physicochemical
# Method: The half-lives for the acid and anion-catalyzed removal of zinc from Zn N-methylated derivatives^35 in 1.0 M HNO3 were 89 s for the meta, 165 s for the para, and 19 hours for the ortho ZnTM-2-PyP^4+. […] In addition to porphyrin ring distortion,^29-32 the steric hindrance and solvation effects imposed by the progressively longer alkyl chains may also contribute to the differences in metaladon/demetalation behavior.
# [10] = Stability of reduced Mn(II) porphyrins in excess ascorbic acid; conditions: aerobic, within 125 min; 6 μM, 70-fold excess of ascorbic acid, pH 7.8, 0.1 M tris buffer; reduced Mn(II) form
# Method: Therefore, we also examined the behavior of the reduced and more biologically relevant Mn^IIT(alkyl)-2-PyP^4+ compounds. We compared the methyl, n-hexyl and n-octyl derivatives (6 μM) aerobically and anaerobically in the presence of a 70-fold excess of ascorbic acid (pH 7.8, 0.1 M tris buffer) and in the presence and absence of a 150-fold excess of EDTA.
# [11] = kcat=kred=kox; cited from earlier work
Rf (compound path/solvent path) [3],"Rf (compound path/solvent path), metal-free porphyrin (in parentheses) [3]",pKa2 [4],E1/2 [5],log kcat [6],degradation of Mn(II) porphyrin [10],Compound,also measured
,,,,,,CCCCCC[n+]1ccccc1-c1c2nc(c(-c3cccc[n+]3CCCCCC)c3ccc([nH]3)c(-c3cccc[n+]3CCCCCC)c3nc(c(-c4cccc[n+]4CCCCCC)c4ccc1[nH]4)C=C3)C=C2.[Zn+2] [ZnTnHex-2-PyP^4+],zinc loss [1]: No indication of zinc loss was found within a week
,,,,,,C[n+]1cccc(-c2c3nc(c(-c4ccc[n+](C)c4)c4ccc([nH]4)c(-c4ccc[n+](C)c4)c4nc(c(-c5ccc[n+](C)c5)c5ccc2[nH]5)C=C4)C=C3)c1 [H2TM-3-PyP^4+],pKa3 [2]: 1.8
,,,,,,C[n+]1ccc(-c2c3nc(c(-c4cc[n+](C)cc4)c4ccc([nH]4)c(-c4cc[n+](C)cc4)c4nc(c(-c5cc[n+](C)cc5)c5ccc2[nH]5)C=C4)C=C3)cc1 [H2TM-4-PyP^4+],pKa3 [2]: 1.4
0.57,0.63,12.2,+314 mV vs NHE,7.48,none,CCCCCC[n+]1ccccc1-c1c2nc(c(-c3cccc[n+]3CCCCCC)c3ccc([nH]3)c(-c3cccc[n+]3CCCCCC)c3nc(c(-c4cccc[n+]4CCCCCC)c4ccc1[nH]4)C=C3)C=C2.[Mn+3] [Mn^IIITnHex-2-PyP^5+],"spectral change (Mn loss) ([9]; solid dissolved in 12 M HCl, 3 months): the spectra did not change within 3 months"
0.33,0.46,11.7,+254 mV vs NHE,7.25,,CCCC[n+]1ccccc1-c1c2nc(c(-c3cccc[n+]3CCCC)c3ccc([nH]3)c(-c3cccc[n+]3CCCC)c3nc(c(-c4cccc[n+]4CCCC)c4ccc1[nH]4)C=C3)C=C2.[Mn+3] [Mn^IIITnBut-2-PyP^5+],
,,,,,,CuZn—SOD: CuZn superoxide dismutase enzyme,kcat [11]: 2e+09 M⁻¹ s⁻¹
0.80,0.86,13.2,+367 mV vs NHE,7.71,none,CCCCCCCC[n+]1ccccc1-c1c2nc(c(-c3cccc[n+]3CCCCCCCC)c3ccc([nH]3)c(-c3cccc[n+]3CCCCCCCC)c3nc(c(-c4cccc[n+]4CCCCCCCC)c4ccc1[nH]4)C=C3)C=C2.[Mn+3] [Mn^IIITnOct-2-PyP^5+],

Compound,Rf (compound path/solvent path) [3],"Rf (compound path/solvent path), metal-free porphyrin (in parentheses) [3]",pKa2 [4],E1/2 [5],log kcat [6],degradation of Mn(II) porphyrin [10],also measured
meso tetrakis(N-ethylpyridinium-2-yl)porphyrins [Mn^IIITE-2-PyP^5+],0.13,0.21,10.9,+228 mV vs NHE,7.76,,growth of SOD-deficient E. coli [7]: allow SOD-deficient Escherchia coli to grow under aerobic conditions; protection in rodent models of oxidative stress [8]: offer protection in rodent models of oxidative stress
"C[n+]1ccccc1-c1c2nc(c(-c3cccc[n+]3C)c3ccc([nH]3)c(-c3cccc[n+]3C)c3nc(c(-c4cccc[n+]4C)c4ccc1[nH]4)C=C3)C=C2.[Mn+3] [Mn^IIITM-2-PyP^5+, Mn(III) meso tetrakis(N-methylpyridinium-2-yl)porphyrin]",0.09,0.13,10.9,+220 mV vs NHE,7.79,−40%,"Mn lost ([9]; 12 M HCl, within a month): over 50%; growth of SOD-deficient E. coli [7]: allow SOD-deficient Escherchia coli to grow under aerobic conditions; protection in rodent models of oxidative stress [8]: offer protection in rodent models of oxidative stress"
